Measurements published in US9073863B2, “Cyanoquinoline compounds having activity in correcting mutant-CFTR processing and increasing ion transport and uses thereof” (The Regents of the University of California, priority 2011, dated 2015).

Key:
[1] = target: T1, ΔF508-CFTR (Homo sapiens, UniProt P13569, DEL508-508); experiment: CFTR immunoblot of ΔF508-CFTR expressing FRT cells; format: cell-based; conditions: 24 h at 37° C.
T1 construct: expressed in transfected cells; host or cells: Fischer rat thyroid (FRT) epithelial cells, stably transfected
Protocol: CFTR Immunoblot. DF508-CFTR expressing FRT cells grown on 6-well plates were treated with Corr-4a ([…]), Compound 22 […] or negative control at 37° C. for 24 h. After treatment, cells were washed with PBS and lysed in 20 mM Hepes (pH 7), 150 mM NaCl, 1 mM EGTA and 1% Igepal containing Complete Protease Inhibitor Cocktail (Roche). After pre-clearing, lysates were subjected to SDS-PAGE and analyzed by immunoblot. Proteins were immunodetected using a mouse monoclonal anti-CFTR antibody (M3A7, Millipore) followed by HRP-conjugated anti-mouse IgG, and visualized by chemiluminescence (ECL Plus, Amersham).
The action of Compound 22 as corrector of defective ΔF508-CFTR cellular processing was verified by CFTR immunoblot analysis (FIG. 4C). Wildtype CFTR was detected as a strong band at 170 kDa (band C), corresponding to complex glycosylated CFTR. […] Band B, which corresponds to core-glycosylated ΔF508-CFTR, was also seen.

[2] = target: T1, ΔF508-CFTR; experiment: Corrector assay, YFP fluorescence plate reader iodide influx in ΔF508-CFTR expressing FRT cells; format: cell-based; conditions: Compound 22 (20 µM) or Corr-4a (10 µM), 24 h
Protocol: Screening procedures. Screening of compounds for activity was carried out using a Beckman Coulter platform equipped with FLUOstar fluorescence plate readers (Optima; BMG Labtech) with dual syringe pumps and 500±10 nm excitation and 535±15 nm emission filters (Chroma Corp.). For the corrector assay, FRT cells were grown at 37° C./5% CO2 for 18-24 h and then incubated for 18-24 h with 100 μL of medium containing test compounds (25 μM final concentration). At the time of the assay, cells were washed with PBS and then incubated for 10 min with PBS containing forskolin (20 μM) and genistein (50 μM). For the potentiator assay, FRT cells were grown at 37° C./5% CO2 for 18-24 h and then for 18-24 h at 27° C. At the time of the assay, cells were washed with PBS and then incubated for 10 min with PBS (50 μL) containing forskolin (20 μM) and test compound (0-25 μM final concentration). For both the corrector and potentiator assays, each well was assayed individually for I^− influx by recording fluorescence continuously (200 ms per point) for 2 s (baseline) and then for 12 s after rapid addition of 165 μL PBS in which 137 mM Cl^− was replaced by I^−. Initial I^− influx rate was computed by fitting the final 11.5 seconds of the data to an exponential for extrapolation of initial slope, which was normalized for background-subtracted initial fluorescence. All compound plates contained negative controls and positive controls (10 μM Corr-4a for corrector assay; 50 μM genistein for potentiator assay).
Screening of about 110,000 small molecules was done to identify new ΔF508-CFTR corrector scaffolds having high correction efficiency and/or having independent potentiator activity. […] FRT cells co-expressing human ΔF508-CFTR and a halide-sensing YFP were incubated with test compounds at 37° C. (corrector assay) or 27° C. (potentiator assay). ΔF508-CFTR function was assayed in a plate reader from YFP fluorescence quenching in response to iodide addition in the presence of forskolin (20 μM) plus genistein (50 μM) for corrector assay, or forskolin (20 μM) alone for potentiator assay. As shown in FIG. 1A (left), primary screening for corrector activity was done using a cell-based fluorescence assay of iodide influx in which FRT cells expressing ΔF508-CFTR and an iodide-sensitive YFP were incubated with test compounds at 10 μM for 18-24 h prior to assay. Iodide influx was measured by addition of extracellular iodide in the presence of a potentiator (50 μM genistein) and cAMP agonist (20 μM forskolin). Compound efficacy and potency (from concentration-dependence studies) in the corrector assay were compared to reference bithiazole Corr-4a (10 μM) and to low-temperature rescued cells. Active compounds were counter-screened for potentiator activity (FIG. 1A, right) in which iodide influx was measured in the ΔF508-CFTR expressing FRT cells after low-temperature rescue and in the presence of 20 μM forskolin.
Screening procedures. Plate reader activity assay was carried out using a Beckman Coulter platform containing a robotic arm, CO2 incubator containing microplate carousel, plate-washer, liquid handling work station, bar code reader, de-lidding station, plate sealer, and FLUOstar fluorescence plate readers (Optima; BMG LABTECH Gmbh), equipped with dual syringe pumps and 500±10 nm excitation and 535±15 nm emission filters (Chroma Corp.). For the corrector assay, ΔF508-CFTR-expressing FRT cells were grown at 37° C. (90% humidity; 5% CO2) for 18-24 h and then incubated for 18-24 h with 100 μL of medium containing test compounds (0-25 μM final concentration). At the time of the assay, cells were washed with PBS and then incubated for 10 min with PBS containing forskolin (20 μM) and genistein (50 μM). For the potentiator assay, FRT cells were grown at 37° C. (90% humidity; 5% CO2) for 18-24 h and then for 18-24 h at 27° C. […]

T1 sequence (P13569 with tags, fused parts or gaps DEL508-508): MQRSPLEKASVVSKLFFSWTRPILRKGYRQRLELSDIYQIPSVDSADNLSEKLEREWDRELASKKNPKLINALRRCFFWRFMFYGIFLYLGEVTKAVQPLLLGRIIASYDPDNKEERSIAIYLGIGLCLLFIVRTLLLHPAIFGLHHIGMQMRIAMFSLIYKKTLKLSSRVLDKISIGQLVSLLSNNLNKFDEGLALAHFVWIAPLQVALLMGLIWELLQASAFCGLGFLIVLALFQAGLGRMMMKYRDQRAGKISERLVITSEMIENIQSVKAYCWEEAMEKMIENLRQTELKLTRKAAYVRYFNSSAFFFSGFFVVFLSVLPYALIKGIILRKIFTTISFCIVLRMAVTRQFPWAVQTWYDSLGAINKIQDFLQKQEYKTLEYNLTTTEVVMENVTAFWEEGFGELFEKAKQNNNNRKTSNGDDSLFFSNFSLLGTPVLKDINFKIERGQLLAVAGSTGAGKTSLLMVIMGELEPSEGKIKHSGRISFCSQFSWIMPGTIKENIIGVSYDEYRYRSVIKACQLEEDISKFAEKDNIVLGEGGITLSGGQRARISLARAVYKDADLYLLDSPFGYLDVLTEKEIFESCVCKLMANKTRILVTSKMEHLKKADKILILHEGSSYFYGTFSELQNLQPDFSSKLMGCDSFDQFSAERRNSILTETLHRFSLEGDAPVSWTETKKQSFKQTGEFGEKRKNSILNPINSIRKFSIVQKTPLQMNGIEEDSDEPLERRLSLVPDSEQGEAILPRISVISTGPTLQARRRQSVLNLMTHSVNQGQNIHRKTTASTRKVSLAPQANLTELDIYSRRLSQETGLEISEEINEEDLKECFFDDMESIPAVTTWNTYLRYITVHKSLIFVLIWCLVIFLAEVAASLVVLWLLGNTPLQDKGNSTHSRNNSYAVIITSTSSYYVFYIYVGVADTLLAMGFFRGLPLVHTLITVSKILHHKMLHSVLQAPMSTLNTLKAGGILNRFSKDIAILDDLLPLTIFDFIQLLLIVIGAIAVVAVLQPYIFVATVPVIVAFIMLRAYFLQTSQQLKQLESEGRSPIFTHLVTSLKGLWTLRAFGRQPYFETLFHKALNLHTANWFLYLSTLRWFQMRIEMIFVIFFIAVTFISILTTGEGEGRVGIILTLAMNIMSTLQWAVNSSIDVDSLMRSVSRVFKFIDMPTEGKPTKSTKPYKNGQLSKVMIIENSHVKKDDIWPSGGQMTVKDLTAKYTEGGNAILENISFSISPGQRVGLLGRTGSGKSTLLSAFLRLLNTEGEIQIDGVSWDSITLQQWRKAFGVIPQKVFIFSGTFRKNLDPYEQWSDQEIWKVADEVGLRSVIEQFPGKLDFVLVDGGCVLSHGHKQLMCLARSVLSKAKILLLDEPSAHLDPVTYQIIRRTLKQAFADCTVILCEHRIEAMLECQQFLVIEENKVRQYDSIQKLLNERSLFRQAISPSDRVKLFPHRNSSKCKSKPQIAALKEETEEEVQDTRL

complex glycosylated CFTR (band C) in immunoblot [1]: band C was visualized | iodide influx after incubation at 27° C. ([2]; 27° C., vs low-temperature rescue control): substantially increased iodide influx | iodide influx after incubation at 37° C. ([2]; 37° C., with genistein): increased iodide influx
Structure (SMILES): COc1ccc(Cl)cc1Nc1nc(-c2sc(NC(=O)c3ccccc3)nc2C)cs1 [Corr-4a, reference compound]
